System: Pseudomonas aeruginosa ("Ps. aeruginosa") ATCC 15442
Assay: Antibacterial test, growth/no-growth (MIC) in liquid medium
Type: cell-based
Details: within the concentration range tested, i.e., up to 2000 ppm
Description: The following materials and procedure were used to determine the potentiating effect of a diethanolamide with various biocides.
(1) Pseudomonas aeruginosa (“Ps. aeruginosa”) ATCC 15442 (a bacterium)
NaCl, 8.0 g; glucose, 1.0 g; tryptone, 1.0 g; DI water, 1.0 L.
5 ml of growth medium were suspended in test tubes, and the culture medium was autoclaved at 121° C. for 20 min. Biocide stock aqueous solutions were added in each tube to give the desired biocide-diethanolamide concentrations in parts per million. No biocide was added to the control tubes. All tubes were inoculated by adding 0.1 ml of inoculum to give a bacterial concentration of about 10^6 cells/ml (10^6 spores/ml for fungal test). After each addition, the tubes were shaken vigorously to mix the contents thoroughly. All inoculated tubes were placed at 37° C. for antibacterial test and at 28° C. for antifungal test. Bacterial growth was checked after 5-7 days and fungal growth was checked after 10-14 days.
The MIC of each biocide and diethanolamide acting alone and in combination was determined on a growth-no-growth basis. Tables 1-16 present both the lowest concentrations of each biocide and diethanolamide separately for which there was no growth, and the lowest concentration of biocide in combination with diethanolamide for which there was no growth. […]

**Q.** How did the antibacterial activity turn out when “(RS)-1- 2-[(2,4-dichlorophenyl)-2-propyl-1,3-dioxalan-2ylmethyl]-1H-1,2,4-triazole [propiconazole]” was run?
**A.** does not have any antibacterial activity

— US6413531B1, “Potentiation of biocide activity using a diethanolamide” (Buckman Laboratories International, Inc., priority 1998, dated 2002)
